Source: patent publication US4738929A, “Purified culture of streptomyces galanosa” (Warner-Lambert Company, priority 1986, dated 1988)
In brackets after ≈: the same amount, converted by molar mass. Structures can show the parent of a compound that is named as a salt.

Legend:
[1] = test system: Escherichia coli (PD-04863); test: Microtiter dilution MIC, Escherichia coli (PD-04863); format: cell-based; details: Mueller-Hinton broth, 37° C., 16-24 hours, read-out: Minimal Inhibitory Concentration
Procedure: (§1) The compounds of the present invention and their pharmaceutically acceptable salts are useful as antimicrobial agents. The antimicrobial activity of the representative examples of compounds in accordance with the present invention against five species of gram-negative bacteria, seven species of gram-positive bacteria, four species of yeast, and two species of fungi were determined using the microtiter dilution technique. This method is described by T. B. Conrath, "Handbook of Microtiter Procedures," Dynatech Corp., Cambridge, Mass., USA (1972); and T. L. Gavan et al, "Microdilution Test Procedures," in Manual of Clinical Microbiology, E. H. Lennette, Ed., American Soc. for Microbiol., Washington, D.C., U.S.A. (1980).
(§2) Each agent is suspended in a nonaqueous solvent for several minutes to sterilize the compound or, if the compound is completely soluble in water, the aqueous solution is sterilized by passage through a 0.2-0.45 micrometer membrane filter.
(§3) Each well of a sterile 96-well microdilution tray is filled under aseptic conditions with 0.1 ml of Mueller-Hinton broth (for antibacterial tests), or yeast extract-peptone-dextrose or buffered supplemented yeast nitrogen base (for tests with yeasts or fungi).
(§4) […] of the test compound solution is added to each of the eight wells in the first row of the tray. A microdilutor apparatus is used to simultaneously mix the contents of these wells and to transfer aliquots to each succeeding row of cells to obtain a range of serially diluted solutions. The last row of wells is untreated and serves as a control.
(§5) Each well containing broth and test compound is inoculated with about ten microliters of inoculum of the test microorganism. One well in the last row of wells (which is free of test compound) is not inoculated and is used as a sterility control The trays are sealed and incubated at 37° C. for 16-24 hours (for bacteria) or at 28° C. for 36-48 hours (yeasts or fungi). During incubation, the inoculated medium is shaken at 100-140 rpm to increase contact between the microorganism cells and test compounds.
(§6) After the incubation period, each plate is evaluated by determining the lowest concentration of test compound required to inhibit the growth of the microorganism and recorded as a minimal inhibitory concentration (MIC).

Salmonella typhimurium = test: Microtiter dilution MIC, Salmonella typhimurium; format: cell-based; details: Salmonella enterica, Mueller-Hinton broth, 37° C., 16-24 hours, read-out: Minimal Inhibitory Concentration
Procedure: as §1, §2, §3, §4, §5, §6

Alcaligenes viscolactis = test: Microtiter dilution MIC, Alcaligenes viscolactis; format: cell-based; details: Mueller-Hinton broth, 37° C., 16-24 hours, read-out: Minimal Inhibitory Concentration
Procedure: as §1, §2, §3, §4, §5, §6

Branhamella catarrhalis = test: Microtiter dilution MIC, Branhamella catarrhalis; format: cell-based; details: Moraxella catarrhalis; Mueller-Hinton broth, 37° C., 16-24 hours; read-out: Minimal Inhibitory Concentration
Procedure: as §1, §2, §3, §4, §5, §6

Pseudomonas aeruginosa = test: Microtiter dilution MIC, Pseudomonas aeruginosa; format: cell-based; details: Mueller-Hinton broth, 37° C., 16-24 hours, read-out: Minimal Inhibitory Concentration
Procedure: as §1, §2, §3, §4, §5, §6

Micrococcus luteus = test: Microtiter dilution MIC, Micrococcus luteus; format: cell-based; details: Mueller-Hinton broth, 37° C., 16-24 hours, read-out: Minimal Inhibitory Concentration
Procedure: as §1, §2, §3, §4, §5, §6

Staphylococcus aureus = test: Microtiter dilution MIC, Staphylococcus aureus; format: cell-based; details: Mueller-Hinton broth, 37° C., 16-24 hours, read-out: Minimal Inhibitory Concentration
Procedure: as §1, §2, §3, §4, §5, §6

Streptococcus pyogenes = test: Microtiter dilution MIC, Streptococcus pyogenes; format: cell-based; details: Mueller-Hinton broth, 37° C., 16-24 hours, read-out: Minimal Inhibitory Concentration
Procedure: as §1, §2, §3, §4, §5, §6

Streptococcus pneumoniae = test: Microtiter dilution MIC, Streptococcus pneumoniae; format: cell-based; details: Mueller-Hinton broth, 37° C., 16-24 hours, read-out: Minimal Inhibitory Concentration
Procedure: as §1, §2, §3, §4, §5, §6

Streptococcus faecalis = test: Microtiter dilution MIC, Streptococcus faecalis; format: cell-based; details: Enterococcus faecalis; Mueller-Hinton broth, 37° C., 16-24 hours; read-out: Minimal Inhibitory Concentration
Procedure: as §1, §2, §3, §4, §5, §6

Bacillus cereus = test: Microtiter dilution MIC, Bacillus cereus; format: cell-based; details: Mueller-Hinton broth, 37° C., 16-24 hours, read-out: Minimal Inhibitory Concentration
Procedure: as §1, §2, §3, §4, §5, §6

Bacillus megaterium = test: Microtiter dilution MIC, Bacillus megaterium; format: cell-based; details: Priestia megaterium; Mueller-Hinton broth, 37° C., 16-24 hours; read-out: Minimal Inhibitory Concentration
Procedure: as §1, §2, §3, §4, §5, §6

Saccharomyces cerevisiae = test: Microtiter dilution MIC, Saccharomyces cerevisiae; format: cell-based; details: yeasts or fungi, 28° C., 36-48 hours, read-out: Minimal Inhibitory Concentration
Procedure: as §1, §2, §3, §4, §5, §6

[2] = test system: Schizosaccharomyces pombe; test: Microtiter dilution MIC, Schizosaccharomyces pombe; format: cell-based; details: yeasts or fungi, 28° C., 36-48 hours, read-out: Minimal Inhibitory Concentration
Procedure: as §1, §2, §3, §4, §5, §6

Rhodotorula aurantiaca = test: Microtiter dilution MIC, Rhodotorula aurantiaca; format: cell-based; details: Buckleyzyma aurantiaca; yeasts or fungi, 28° C., 36-48 hours; read-out: Minimal Inhibitory Concentration
Procedure: as §1, §2, §3, §4, §5, §6

Torulopsis albida = test: Microtiter dilution MIC, Torulopsis albida; format: cell-based; details: Naganishia albida; yeasts or fungi, 28° C., 36-48 hours; read-out: Minimal Inhibitory Concentration
Procedure: as §1, §2, §3, §4, §5, §6

Mucor paraciticus = test: Microtiter dilution MIC, Mucor paraciticus; format: cell-based; details: yeasts or fungi, 28° C., 36-48 hours, read-out: Minimal Inhibitory Concentration
Procedure: as §1, §2, §3, §4, §5, §6

Rhizopus japonicus = test: Microtiter dilution MIC, Rhizopus japonicus; format: cell-based; details: yeasts or fungi, 28° C., 36-48 hours, read-out: Minimal Inhibitory Concentration
Procedure: as §1, §2, §3, §4, §5, §6

[3] = test system: L1210 murine leukemia cell line; test: Cytotoxic activity against L1210 murine leukemia in vitro; format: cell-based; details: Mus musculus, 50% inhibition of growth, duplicate tests
Procedure: The antineoplastic activities of representative compounds of the present invention against the L1210 murine leukemia cell line in vitro were determined using the methods detailed by R. I. Geran et al, "Protocols for Screening Chemical Agents and Natural Products Against Animal Tumors and Other Biological Systems," 3rd Edition, Cancer Chemotherapy Reports, Part 3, Vol. 3, pages 1-87 (1972) which is incorporated herein by reference.
The IC50 values are the concentration of compound required to produce 50% inhibition of growth of the cell line.

P388 leukemia cell line = test: In vivo antineoplastic activity against transplanted P388 leukemia in mice; details: Days 1-9
Procedure: The in vivo antineoplastic activity of representative compounds of the present invention against the transplanted P388 leukemia cell line in mice was determined in accordance with the protocol given in Geran et al, cited above. The mice were infected intraperitoneally on Day 0 and then administered the indicated doses of the test compounds on Days 1-9.

Structure (SMILES) | MIC [1] [µg/mL] | MIC (Salmonella typhimurium) [µg/mL] | MIC (Alcaligenes viscolactis) [µg/mL] | MIC (Branhamella catarrhalis) [µg/mL] | MIC (Pseudomonas aeruginosa) [µg/mL] | MIC (Micrococcus luteus) [µg/mL] | MIC (Staphylococcus aureus) [µg/mL] | MIC (Streptococcus pyogenes) [µg/mL] | MIC (Streptococcus pneumoniae) [µg/mL] | MIC (Streptococcus faecalis) [µg/mL] | MIC (Bacillus cereus) [µg/mL] | MIC (Bacillus megaterium) [µg/mL] | MIC (Saccharomyces cerevisiae) [µg/mL] | MIC [2] [µg/mL] | MIC (Rhodotorula aurantiaca) [µg/mL] | MIC (Torulopsis albida) [µg/mL] | MIC (Mucor paraciticus) [µg/mL] | MIC (Rhizopus japonicus) [µg/mL] | IC50 [3] [µg/mL] | % T/C (P388 leukemia cell line; 37.5 mg/kg/injection) [%] | other results
CCN(CC)CCNC(=O)c1ccc(O)c2nc3c(C=O)c(O)c(C)c(O)c3nc12 [Example 16, N-[2-(diethylamino)ethyl]-6-formyl-4,7,9-trihydroxy-8-methyl-1-phenazinecarboxamide] | 37 (≈ 89.7 µM) | 37 (≈ 89.7 µM) | 12.3 (≈ 29.8 µM) | 12.3 (≈ 29.8 µM) | 333 (≈ 807 µM) | 12.3 (≈ 29.8 µM) | 37 (≈ 89.7 µM) | 37 (≈ 89.7 µM) | 37 (≈ 89.7 µM) | 111 (≈ 269 µM) | 12.3 (≈ 29.8 µM) | 37 (≈ 89.7 µM) | 111 (≈ 269 µM) | 37 (≈ 89.7 µM) | 37 (≈ 89.7 µM) | 37 (≈ 89.7 µM) | 111 (≈ 269 µM) | 111 (≈ 269 µM) | 0.33 (≈ 0.8 µM) | 147 | % T/C (P388 leukemia cell line; 19 mg/kg/injection): 136%; % T/C (P388 leukemia cell line; 75 mg/kg/injection): 166%; % T/C (P388 leukemia cell line; 150 mg/kg/injection): 213%
COC(=O)c1ccc(O)c2nc3c(C=O)c(O)c(C)c(O)c3nc12 [Example 3, 6-formyl-4,7,9-trihydroxy-8-methyl-1-phenazinecarboxylic acid, methyl ester] | > 1000 | 1000 (≈ 3050 µM) | 333 (≈ 1010 µM) | 111 (≈ 338 µM) | > 1000 | 111 (≈ 338 µM) | > 1000 | 111 (≈ 338 µM) | < 0.46 | 1000 (≈ 3050 µM) | 333 (≈ 1010 µM) | 1000 (≈ 3050 µM) | > 1000 | > 1000 | > 1000 | 1000 (≈ 3050 µM) | 1000 (≈ 3050 µM) | > 1000 | 0.17 (≈ 0.518 µM) | – | % T/C (P388 leukemia cell line; 3.12 mg/kg/injection): 119%; % T/C (P388 leukemia cell line; 6.25 mg/kg/injection): 130%; % T/C (P388 leukemia cell line; 12.5 mg/kg/injection): 149%; % T/C (P388 leukemia cell line; 25 mg/kg/injection): Toxic
Cc1c(O)c(C=O)c2nc3c(O)ccc(C(=O)NCCN(C)C)c3nc2c1O [Example 9, N-[2-(dimethylamino)ethyl]-6-formyl-4,7,9-trihydroxy-8-methyl-1-phenazinecarboxamide, methanesulfonate salt] | – | – | – | – | – | – | – | – | – | – | – | – | – | – | – | – | – | – | – | – | % T/C (P388 leukemia cell line; 5 mg/kg/injection): 139%; % T/C (P388 leukemia cell line; 10 mg/kg/injection): 143%; % T/C (P388 leukemia cell line; 20 mg/kg/injection): 144%; % T/C (P388 leukemia cell line; 40 mg/kg/injection): 170%; % T/C (P388 leukemia cell line; 80 mg/kg/injection): 219%
COC(=O)c1ccc(O)c2nc3c(C=NCCN(C)C)c(O)c(C)c(O)c3nc12 [Example 5, 6-[[[2-(dimethylamino)ethyl]imino]methyl]-4,7,9-trihydroxy-8-methyl-1-phenazinecarboxylic acid, methyl ester] | 12.3 (≈ 30.9 µM) | 12.3 (≈ 30.9 µM) | 4.1 (≈ 10.3 µM) | 1.4 (≈ 3.51 µM) | 111 (≈ 279 µM) | 4.1 (≈ 10.3 µM) | 12.3 (≈ 30.9 µM) | 4.1 (≈ 10.3 µM) | < 0.46 | 12.3 (≈ 30.9 µM) | 1.4 (≈ 3.51 µM) | 4.1 (≈ 10.3 µM) | 111 (≈ 279 µM) | 37 (≈ 92.9 µM) | 111 (≈ 279 µM) | 333 (≈ 836 µM) | 37 (≈ 92.9 µM) | 111 (≈ 279 µM) | 0.17 (≈ 0.427 µM) | 104 | % T/C (P388 leukemia cell line; 75 mg/kg/injection): 113%; % T/C (P388 leukemia cell line; 150 mg/kg/injection): 137%
CN(C)CCNC(=O)c1ccc(O)c2nc3c(C=O)c(O)cc(O)c3nc12 [Example 14, N-[2-(dimethylamino)ethyl]-6-formyl-4,7,9-trihydroxy-1-phenazinecarboxamide] | 111 (≈ 300 µM) | 111 (≈ 300 µM) | 12.3 (≈ 33.2 µM) | 12.3 (≈ 33.2 µM) | 1000 (≈ 2700 µM) | 111 (≈ 300 µM) | 37 (≈ 99.9 µM) | 111 (≈ 300 µM) | 111 (≈ 300 µM) | 111 (≈ 300 µM) | 37 (≈ 99.9 µM) | 111 (≈ 300 µM) | > 1000 | 111 (≈ 300 µM) | 37 (≈ 99.9 µM) | 333 (≈ 899 µM) | 333 (≈ 899 µM) | 333 (≈ 899 µM) | – | – | –
Cc1c(O)c(C=O)c2nc3c(O)ccc(C(=O)O)c3nc2c1O [Example 11, 6-formyl-4,7,9-trihydroxy-8-methyl-1-phenazinecarboxylic acid] | 111 (≈ 353 µM) | 111 (≈ 353 µM) | 12.3 (≈ 39.1 µM) | 12.3 (≈ 39.1 µM) | 1000 (≈ 3180 µM) | 111 (≈ 353 µM) | 37 (≈ 118 µM) | 111 (≈ 353 µM) | 111 (≈ 353 µM) | 111 (≈ 353 µM) | 37 (≈ 118 µM) | 111 (≈ 353 µM) | 111 (≈ 353 µM) | 37 (≈ 118 µM) | 12.3 (≈ 39.1 µM) | 111 (≈ 353 µM) | 37 (≈ 118 µM) | 37 (≈ 118 µM) | 3.47 (≈ 11 µM) | – | –
